According to patent US20140328799A1, “COMPOSITIONS USEFUL FOR THE TREATMENT OF VIRAL DISEASES” (priority 2011, published 2014):
Entries after “also recorded” stand apart in the source; their conditions may differ.

System: HCV replicons encoding amino acid variations R155K, A156T, and D168Y in the NS3 protease
Test: HCV replicon TaqMan assay, variants compared with wildtype
Type: cell-based, Hepatitis C virus
Conditions: NS3 protease variants versus wildtype genotype 1b (con1)
Method: The day prior to titration replicon cells are seeded into a 96-well Costar black-walled clear bottom plate (3,000 cells/well) in 100 μl complete D-MEM and incubated 0/N at 37° C. The next morning 25 μl of compound dilutions (5× final concentration) in complete DMEM and 5% DMSO are added, adjusting the final DMSO concentration to 1.0%. Cells with compound are incubated for 48 hours at 37° C.
Total RNA is isolated from cells of each well using the QIAGEN RNeasy 96-well kit according to manufacturer's instructions (QIAGEN, Inc. Valencia, Calif.). RNA is eluted twice in 60 μl aliquots and combined. […]
The normalized value for the amount of replicon RNA is determined by measuring the experimental cycle threshold CT as described above, determining the amount of RNA against a standard curve of total replicon cell RNA, and normalizing this to the signal produced by the cellular human Cyclophilin A gene using Taqman PDAR Human Cyclophilin (Applied Biosystems Inc., Foster City, Calif.).
HCV replicons encoding amino acid variations R155K, A156T, and D168Y in the NS3 protease have been constructed using standard techniques in molecular cloning. The susceptibility of these replicon variants to inhibition by Compound 6 and a Compound T4, was assessed in the HCV replicon assay, and the results are shown in Table 2. […]

SMILES | change in susceptibility to inhibition of replicon variants versus wildtype
CC[C@@H]1C[C@]1(NC(=O)[C@@H]1C[C@@H]2CN1C(=O)[C@H](C(C)(C)C)NC(=O)OCC(C)(C)CCCCc1cccc3c1CN(C3)C(=O)O2)C(=O)NS(=O)(=O)C1CC1 [Compound 6] | significantly reduced susceptibility to inhibition; also recorded: significant losses of potency
C[C@@]1(O)[C@H](O)[C@@H](CO)O[C@H]1n1cnc2c(N)ncnc21 [Compound T4] | no significant change in susceptibility to inhibition; also recorded: no loss of potency
